{
  "source": "patent US20250032624A1",
  "about": "“SMALL MOLECULE DEGRADATION METHODS FOR TREATING ALS/FTD” (University of Florida Research Foundation, Incorporated, priority 2021, published 2025)",
  "key": {"[1]": {"tested_on": "r(G4C2)^exp-containing C9orf72 transcript", "assay": "C9orf72 transcript RT-qPCR in c9ALS/FTD iPSNs", "type": "cell-based, human", "protocol": "Differentiated motor neurons (iPSNs) were derived from the iPSCs listed in the previous section. The differentiation process was based on a previously reported method with slight modifications^33,34. Briefly, iPSCs were plated into Matrigel-coated 100 mm dishes (30-40% confluence). Neuroepithelial induction was performed by replacing the Basal medium with Stage 1 medium [47.5% IMDM (Iscove's Modified Dulbecco's Medium), 47.5% F12 medium, 1% NEAA (Non-Essential Amino Acids) (Life Technologies), 2% B27 (Invitrogen), 1% N2 (Invitrogen), 1% PSA (Penicillin-Streptomycin-Amphotericin), 0.2 μM LDN193189 (Stemgent), 10 μM SB431542 (STEMCELL Technologies) and 3 μM CHIR99021 (Sigma-Aldrich)]. The medium was changed daily for 6 days, after which cells were detached from plates using Accutase (STEMCELL Technologies). Cells were seeded into 6-well plates (1.5×10^6 cells/well) in 3 mL of Stage 2 medium [Stage 1 medium supplemented with 0.1 μM All-trans RA (Sigma-Aldrich) and 1 μM SAG (Cayman Chemicals)]. Cells were maintained in Stage 2 medium, with daily medium changes, through Day 11 of the differentiation process. On Day 12, the Stage 2 cell medium was removed and replaced with Stage 3 medium [47.5% IMDM, 47.5% F12 medium, 1% NEAA, 2% B27, 1% N2, 1% PSA, 0.1 μM Compound E (Millipore; Catalog #: 565790), 2.5 μM DAPT (Sigma-Aldrich), 0.1 μM db-cAMP (Millipore), 0.5 μM All-trans RA, 0.1 μM SAG, 20 ng/mL ascorbic acid, 10 ng/mL BDNF (STEMCELL Technologies), and 10 ng/mL GDNF (STEMCELL Technologies)]. This medium was replaced every three days until the end of the differentiation process. Typically, a minimum of 18 days is required to produce immature differentiated motor neurons; 30 days of differentiation is the standard for producing mature differentiated spinal neurons. The cells can be maintained in medium for an additional 14-28 days after reaching maturation. […]\nFor iPSNs cells were differentiated, following the protocol outlined above, until Day 15. […] RNA was extracted as described above and the expression levels of C9orf72 variants was determined by RT-qPCR and normalized to GAPDH. […]"}, "[2]": {"tested_on": "RAN translation, poly(GP)", "assay": "poly(GP) abundance in c9ALS/FTD iPSNs", "type": "cell-based, human", "settings": "500 nM, treated 17 days (day 15-32)", "protocol": "Differentiated motor neurons (iPSNs) were derived from the iPSCs listed in the previous section. The differentiation process was based on a previously reported method with slight modifications^33,34. Briefly, iPSCs were plated into Matrigel-coated 100 mm dishes (30-40% confluence). Neuroepithelial induction was performed by replacing the Basal medium with Stage 1 medium [47.5% IMDM (Iscove's Modified Dulbecco's Medium), 47.5% F12 medium, 1% NEAA (Non-Essential Amino Acids) (Life Technologies), 2% B27 (Invitrogen), 1% N2 (Invitrogen), 1% PSA (Penicillin-Streptomycin-Amphotericin), 0.2 μM LDN193189 (Stemgent), 10 μM SB431542 (STEMCELL Technologies) and 3 μM CHIR99021 (Sigma-Aldrich)]. The medium was changed daily for 6 days, after which cells were detached from plates using Accutase (STEMCELL Technologies). Cells were seeded into 6-well plates (1.5×10^6 cells/well) in 3 mL of Stage 2 medium [Stage 1 medium supplemented with 0.1 μM All-trans RA (Sigma-Aldrich) and 1 μM SAG (Cayman Chemicals)]. […]\nMeso Scale Discovery (MSD) Technology utilizes electrochemiluminescence to detect biomarkers, such as poly(GP), in protein samples. […] Protein samples were quantified using a Pierce™ Micro BCA Protein Assay Kit (Thermo Scientific).\nPoly(GP) levels were measured by an electrochemical luminescent sandwich immunoassay. […]"}, "[3]": {"tested_on": "β-actin", "assay": "β-actin abundance in brain of -/-PWR500 (WT) mice", "type": "in vivo, mouse", "protocol": "A total of 20 age- and gender-matched mice (12 +/+PWR500 [5 Male and 7 Female] and 8 WT [4 Male and 4 Female]), ranging from 18-21 weeks old were used in therapeutic efficacy studies (Table 4). Mice were treated with a single bolus injection of 33 nmol of compound 2 formulated in 1% (v/v) DMSO/99% water, administered by an intracerebroventricular injection (ICV). Three weeks post injection, mice were euthanized, and tissue was harvested for study.\nPostmortem brain tissue was harvested and sliced along the sagittal plane at the midline. The left hemisphere was frozen for RNA and protein analysis. Frozen brain tissue was homogenized in 300 μL Tris-EDTA buffer with a 1:5 w/v ratio of 2× protease and phosphatase inhibitors, as was done for RNA analysis of the tissue. Half of the homogenized tissue (150 μL) was mixed with 2× Lysis Buffer (50 mM Tris, pH 7.4, 250 mM NaCl, 2% (v/v) Triton X-100, and 4% (w/v) SDS) and sonicated at 1 second on/off intervals at 30% for a total of 15 seconds. Detergent from was removed using a Pierce™ Detergent Removal Spin Column 0.5 mL (Thermo Scientific) according to the manufacturer's protocol. Protein concentrations were then measured by BCA assay (Pierce Biotechnology) and poly(GP) was measured as described above for the electrochemical luminescent sandwich immunoassay."}},
  "data": [
    {"compound": "CCOC(=O)C1=C(Nc2ccccc2)S/C(=C\\c2ccc(OCCOCCOCCOCCNC(=O)CCCOc3ccc4c(c3)c3cc5c(C(=O)N[C@H](C)CN(C)C)nccc5c(C)c3n4C)c(O)c2)C1=O", "note": "[ALS Compound Formula I]", "values": [
      {"measurement": "exon 1b transcript abundance", "setting": "[1]", "result": "unaffected"},
      {"measurement": "decrease in C9orf72 exon 2-3 abundance", "setting": "[1]; 500 nM", "result": "~40", "unit": "%"},
      {"measurement": "decrease in C9orf72 intron 1 levels", "setting": "[1]; 500 nM", "result": "~50", "unit": "%"},
      {"measurement": "reduction of poly(GP) abundance", "setting": "[2]", "result": "~60", "unit": "%"},
      {"measurement": "β-actin abundance", "setting": "[3]", "result": "no reduction"}
    ]}
  ]
}
